# Test results as given in patent US20250092084A1, “C7, C12, AND C16 SUBSTITUTED NEUROACTIVE STEROIDS AND THEIR METHODS OF USE” (Sage Therapeutics, Inc., priority 2016, published 2025).
# Target: rat brain cortical membranes (GABA receptor complex, [35S]-TBPS binding)
# Experiment: Steroid inhibition of [35S]-TBPS binding
# Conditions: 3 nM [35S]-TBPS, in the presence of 5 mM GABA
# Method: [^35S]-t-Butylbicyclophosphorothionate (TBPS) binding assays using rat brain cortical membranes in the presence of 5 mM GABA has been described (Gee et al, J Pharmacol. Exp. Ther. 1987, 241, 346-353; Hawkinson et al, Mol. Pharmacol. 1994, 46, 977-985; Lewin, A. H et al., Mol. Pharmacol. 1989, 35, 189-194).
# Briefly, cortices are rapidly removed following decapitation of carbon dioxide-anesthetized Sprague-Dawley rats (200-250 g). The cortices are homogenized in 10 volumes of ice-cold 0.32 M sucrose using a glass/teflon homogenizer and centrifuged at 1500×g for 10 min at 4° C. The resultant supernatants are centrifuged at 10,000×g for 20 min at 4° C. to obtain the P2 pellets. The P2 pellets are resuspended in 200 mM NaCl/50 mM Na—K phosphate pH 7.4 buffer and centrifuged at 10,000×g for 10 min at 4° C. This washing procedure is repeated twice and the pellets are resuspended in 10 volumes of buffer. Aliquots ([…]) of the membrane suspensions are incubated with 3 nM [^35S]-TBPS and […] aliquots of test drug dissolved in dimethyl sulfoxide (DMSO) (final 0.5%) in the presence of 5 mM GABA. The incubation is brought to a final volume of 1.0 mL with buffer. Nonspecific binding is determined in the presence of […] and ranged from 15 to 25%. Following a 90 min incubation at room temp, the assays are terminated by filtration through glass fiber filters (Schleicher and Schuell No. 32) using a cell harvester (Brandel) and rinsed three times with ice-cold buffer. Filter bound radioactivity is measured by liquid scintillation spectrometry. Non-linear curve fitting of the overall data for each drug averaged for each concentration is done using Prism (GraphPad). […] The concentration of test compound producing 50% inhibition (IC50) of specific binding and the maximal extent of inhibition (Imax) are determined for the individual experiments with the same model used for the overall data and then the means±SEMs of the individual experiments are calculated.
# Various compounds are or can be screened to determine their potential as modulators of [^35S]-TBPS binding in vitro. These assays are or can be performed in accordance with the above discussed procedures.
row,Structure (SMILES),IC50
1,C[C@@H]1C[C@H]2C[C@](C)(O)CC[C@]2(C)[C@H]2CC[C@]3(C)[C@@H](C(=O)Cn4cc5ccncc5n4)CC[C@H]3[C@H]12 [Compound 8],≥ 500 nM
2,COC[C@H]1C[C@H]2C[C@](C)(O)CC[C@]2(C)[C@H]2CC[C@]3(C)[C@@H](C(=O)Cn4nnc5cc(OC)ccc54)CC[C@H]3[C@H]12 [Compound 17],≥ 500 nM
3,COc1ccc2nn(CC(=O)[C@H]3[C@H](C)C[C@H]4[C@@H]5CC[C@H]6C[C@](C)(O)CC[C@]6(C)[C@H]5CC[C@@]43C)nc2c1 [Compound 67],10 to 50 nM
4,Cc1nnn(CC(=O)[C@H]2CC[C@H]3[C@@H]4[C@H](C)C[C@H]5C[C@](C)(O)CC[C@]5(C)[C@H]4CC[C@]23C)n1 [Compound 34],≥ 500 nM
5,Cc1nnn(CC(=O)[C@H]2[C@H](C)C[C@H]3[C@@H]4CC[C@H]5C[C@](C)(O)CC[C@]5(C)[C@H]4CC[C@@]32C)n1 [Compound 89],10 to 50 nM
6,C[C@@H]1C[C@H]2C[C@](C)(O)CC[C@]2(C)[C@H]2CC[C@]3(C)[C@@H](C(=O)Cn4ncc5ccncc54)CC[C@H]3[C@H]12 [Compound 10],≥ 500 nM
7,COC[C@H]1C[C@H]2C[C@](C)(O)CC[C@]2(C)[C@H]2CC[C@]3(C)[C@@H](C(=O)Cn4nnc5ccc(OC)cc54)CC[C@H]3[C@H]12 [Compound 16],≥ 500 nM
8,CO[C@H]1C[C@H]2[C@@H](CC[C@H]3C[C@](C)(O)CC[C@@]32C)[C@@H]2CC[C@H](C(=O)Cn3cc(C#N)cn3)[C@@]12C [Compound 53],≥ 500 nM
9,C[C@@]1(O)CC[C@@]2(C)[C@@H](CC[C@@H]3[C@@H]2CC(=O)[C@]2(C)[C@@H](C(=O)Cn4cc(C#N)cn4)CC[C@@H]32)C1 [Compound 48],≥ 500 nM
10,CC(C)[C@@H]1C[C@H]2[C@@H]3CC[C@H]4C[C@](C)(O)CC[C@]4(C)[C@H]3CC[C@]2(C)[C@H]1C(=O)Cn1cc2ccncc2n1 [Compound 76],≥ 500 nM
11,COC[C@@H]1C[C@H]2C[C@](C)(O)CC[C@]2(C)[C@H]2CC[C@]3(C)[C@@H](C(=O)Cn4cc5ccncc5n4)CC[C@H]3[C@H]12 [Compound 24],≥ 500 nM
12,C[C@H]1C[C@H]2C[C@](C)(O)CC[C@]2(C)[C@H]2CC[C@]3(C)[C@@H](C(=O)Cn4cc5ccncc5n4)CC[C@H]3[C@H]12 [Compound 7],≥ 500 nM
